Converted amounts (≈) assume the structure as drawn. The source made the active and inactive calls. No cut-off for these calls is given here.

A word on the logP: it is the decadic logarithm of the partition coefficient of the neutral form, usually between octanol and water. High values mean higher lipophilicity, low ones lower lipophilicity. A word on the logD: it is the decadic logarithm of the distribution of all forms, ionised or not, between an organic phase and buffer at a given pH. Low readings indicate lower lipophilicity, high ones higher lipophilicity. What is called bioavailability is dose-corrected exposure relative to a reference, in per cent. A low value points to poor availability. One may read the solubility as how much of the substance goes into solution per volume. High values mean a readily soluble substance, low ones a poorly soluble substance. By EC50 is commonly meant the concentration giving half of the maximal effect.

Data set [1] has as its target T1, Retinoic acid receptor beta (Homo sapiens) (UniProt P10826).
T1 sequence (whole entry): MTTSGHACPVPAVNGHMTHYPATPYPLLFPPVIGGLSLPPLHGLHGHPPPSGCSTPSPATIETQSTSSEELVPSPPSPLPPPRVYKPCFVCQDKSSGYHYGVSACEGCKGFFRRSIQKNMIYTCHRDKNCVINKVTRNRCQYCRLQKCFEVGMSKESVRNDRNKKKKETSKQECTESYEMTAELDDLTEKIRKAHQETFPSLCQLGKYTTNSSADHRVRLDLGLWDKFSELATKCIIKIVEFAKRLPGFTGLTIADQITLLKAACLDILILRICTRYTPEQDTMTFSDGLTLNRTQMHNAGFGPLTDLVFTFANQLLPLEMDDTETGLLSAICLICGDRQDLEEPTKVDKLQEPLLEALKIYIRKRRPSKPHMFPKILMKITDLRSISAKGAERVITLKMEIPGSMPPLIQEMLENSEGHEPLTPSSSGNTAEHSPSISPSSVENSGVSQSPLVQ
As to the kind of experiment: Efficacy against RARbeta1.

Data set [2] concerns the target T1, Retinoic acid receptor beta (Homo sapiens). As to the kind of experiment: Efficacy against RARbeta2.
Data set [3] can be described thus: Partition coefficient of the compound, log P. The class given is physicochemical. The conditions noted are these: octanol/water.
The nature of data set [4]: Distribution coefficient of the compound, log D. The class given is physicochemical. The conditions noted are these: octanol/water.
A short description of data set [5]: Oral bioavailability in Rats. The format is ADME, organism-based. The conditions noted are these: rat, in vivo.
The nature of data set [6]: Solubility at pH 7.4. The class given is physicochemical. The following applies: buffer.
Data set [7] has as its target T2, Retinoic acid receptor beta (Homo sapiens, UniProt P10826).
T2 sequence (P10826 whole entry): T1 sequence (whole entry)
Briefly: Transcriptional activity against RARbeta1. The class given is functional.

In data set [8] the target is T2, Retinoic acid receptor beta. As to the kind of experiment: Transcriptional activity against RARbeta2. The format is functional.
The next data set concerns MCF7. Briefly: Inhibition of DNA synthesis in MCF7 cells by [3H]thymidine incorporation. The conditions noted are these: Homo sapiens. The format is functional, cell-based. For orientation: Dividing cells build labelled thymidine or BrdU into new DNA.

Consider `CCc1ccc(-c2ccc(C(=O)O)cc2)cc1`, for which the Efficacy entry in data set [1] and in data set [2] was “inactive” each time.
With `CCCCOCCOc1nc(-c2ccc(C(=O)O)c(F)c2)sc1C`, the logP in data set [3] is 5.1. Further, the logD in data set [4] worked out at 1.4. Moreover, the figures for the Efficacy in data set [1] and in data set [2] were 40% and 96%, respectively. This molecule also registered a bioavailability in data set [5] of 52%. Besides, the solubility in data set [6] amounted to 4800 µg/mL (≈ 13.6 mM).
Take `CC1(C)CCC(C)(C)c2cc(C(=O)Nc3ccc(C(=O)O)cc3)ccc21`: the Efficacy in data set [2] was found to be 100%.
Take `CCCCCCc1ccc(-c2ccc(C(=O)O)cc2)cc1`: the EC50 is > 10000 nM in data set [7] and 50.1 nM in [8]. In addition, in data set [1], the Efficacy entry was “inactive”. In data set [2], this molecule had an Efficacy of 37%.
The like results for `CCCCc1ccc(-c2ccc(C(=O)O)cc2)cc1` were, in that order, > 10000 nM, 63.1 nM, “inactive” and 36%.
With `CCCc1ccc(-c2ccc(C(=O)O)cc2)cc1`, the Efficacy result in data set [1] and in data set [2] was “inactive” throughout.
Regarding `CCCCCc1ccc(-c2ccc(C(=O)O)cc2)cc1`, the 50% effective concentration (EC50) was > 10000 nM in data set [7] and 15.8 nM in data set [8]. Moreover, the Efficacy result in [1] was “inactive”. This molecule also came in with an Efficacy in data set [2] of 38%.
The like results for `CCCCCCCc1ccc(-c2ccc(C(=O)O)cc2)cc1` were, in that order, > 10000 nM, 25.1 nM, “inactive” and 64%.
The like results for `CCCCCCCCCc1ccc(-c2ccc(C(=O)O)cc2)cc1` were, in that order, 316 nM, 15.8 nM, 58% and 100%.
With `CCCCCCCCc1ccc(-c2ccc(C(=O)O)cc2)cc1`, the half-maximal effective concentration (EC50) in [7] is > 10000 nM; in data set [8] it was 126 nM. In the data set on MCF7, the outcome was Active. Also, the figures for the Efficacy in data set [1] and in data set [2] were 31% and 92%, respectively. In data set [6], the solubility is < 1 µg/mL.
